# Values joined by “and” are separate entries in the source; they are usually repeats but may differ in a detail not shown here. Identical values can stand only once.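 Briefly, cells in 96-well plates were exposed to five compound concentrations for 48 h, and endpoints were estimated by linear interpolation. Here, GI50 denotes the concentration required for 50% inhibition of growth. Definition used: TGI = concentration required for complete inhibition of growth.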
# System: MDA-MB-468 breast
# Experiment: inhibition of tumour cell growth, NCI panel, 48 h
Compound,GI50,TGI [µM]
COc1ccc(C(=O)/C=C/c2cccc([N+](=O)[O-])c2)c(OC)c1,1.09 µM,3
CCn1cc(C(=O)N/N=C/c2ccccc2)c(=O)c2cc(F)c(N3CCNC(C)C3)c(F)c21 (configuration not stated),1.62 µM,3.12
NC(=O)c1ccc(I)c(N=O)c1,21.3 µM,61.3
Cc1ccc(-c2nc(C#N)c(S(=O)(=O)n3nc(C)cc3N)o2)cc1,2.72 µM,7.96
CNC(=O)c1cccc2cc(Oc3ccnc4cc(OCC5(N)CC5)c(OC)cc34)ccc12,7.41 µM,22.6
COc1ccc(-c2nc(/C=N/Nc3cc(C)nc4ccc(Cl)cc34)c(C)o2)cc1,1.93 µM,3.71
CN(C)C(=S)/N=c1\ssc(=S)n1Cc1cccnc1,3.07 µM,> 100
CCn1cnc(C[C@H](NC(=O)[C@@H](NC(=O)Nc2cc(C(F)(F)F)cc(C(F)(F)F)c2)C(C)C)C(=O)OC)c1,1.74 µM,3.57
Cc1cc(NCCN(C(C)C)C(C)C)nc(/N=C(\N)Nc2ccc(Cl)c(C(F)(F)F)c2)n1,0.229 µM,0.595
COc1ccc(-c2cc(-c3cccc4ccccc34)n3c(n2)nc2ccccc23)cc1OC,2.7 µM,> 100
Cc1cc(Cl)cc(NS(=O)(=O)c2ccc(-c3cnc(C4CC4)o3)cc2)c1,0.12 µM,4.44
C=CC1CN2CCC1CC2C(O)c1ccnc2ccc(OC)cc12 (configuration not stated),> 100 µM,> 100
COC(=O)[C@@]12OC[C@]34[C@H]([C@@H](O)[C@@H]1O)[C@@]1(C)[C@H](O)C(=O)C=C(C)[C@@H]1C[C@H]3OC(=O)C(OC(C)=O)[C@@H]24 (some centres not stated),0.0208 µM,0.0624
CCCc1cc(=O)[nH]c(-n2nc(C)cc2C)n1,4.77 µM,> 100
COc1cc(Nc2c(C#N)cnc3cc(OCCCN4CCN(C)CC4)c(OC)cc23)c(Cl)cc1Cl,1.63 µM,4.14
Cc1cc(O)c(C2=NN(c3ccc(S(N)(=O)=O)cc3)C(c3ccccc3Cl)C2)cc1Cl (configuration not stated),2.22 µM,4.74
O=C(Nc1cccc(-n2cc(-c3ccncc3)c(-c3ccc(Cl)c(O)c3)n2)c1)c1ccc(N2CCOCC2)c(C(F)(F)F)c1,7.04 µM,26.6
CCN(Cc1ccc(F)cc1)c1ccc(CO)c(F)c1,0.167 µM,0.461
CN1CCN(CCOc2ccc(-c3cnc4c(-c5ccc(C(F)(F)F)cc5)cnn4c3)cc2)CC1,1.36 µM,2.95
CCC1CN2C(=N1)c1ccccc1-c1cc(Cl)ccc12 (configuration not stated),2.16 µM,6.85
O=S(=O)(Nc1ccc(Br)c(Cl)c1)c1ccc(-c2cnc(C3CC3)o2)cc1,0.263 µM,2.86
CN(C)C(=S)/N=c1\ssc(=S)n1Cc1ccccc1,0.5 µM,35.2
CC1OC(n2c3ccccc3c3c4c(c5c6ccccc6[nH]c5c32)C(=O)N(CCN[C@@H]2CCC[C@H]2N)C4=O)CC(O)C1O (some centres not stated),1.15 µM,3
CC1(N)CCN(c2cccnc2NC(=O)c2nc(-c3ncccc3C(F)(F)F)cnc2N)CC1,14.1 µM,52.8
COc1ccc2c(c1)nnn1c3ncccc3c(N=O)c21,0.0323 µM and 0.126 µM,–
COc1cccc(-n2nc(C)c3c(N/N=C(\C)c4ccncc4)ncnc32)c1,2.67 µM,> 25
C=C1/C(=C\C=C2/CCC[C@]3(C)[C@@H]([C@H](C)CCCC(C)(C)O)CC[C@@H]23)C[C@@H](OC(=O)CBr)C[C@@H]1O,2.56 µM,7.74

Compound,GI50,TGI [µM]
CN(C)c1ccc(-c2cc(-c3c[nH]c4ccccc34)nc(N)c2C#N)cc1,1.97 µM,9.22
COC1=CC(c2ccc[nH]2)=N/C1=C\c1[nH]c(C)c(C(=O)CCCCC(=O)NC(C)(C)C)c1C,1.52 µM,3.58
COc1ccc(C2CC(C)(O)Oc3cc4c(cc32)OCO4)cc1 (configuration not stated),18.9 µM,55.7
COc1cccc(C2=C(c3c(C)n(C)c4ccccc34)C(=O)NC2=O)c1,7.67 µM,> 25
O=C1c2cccc(NCCN=Cc3cc([N+](=O)[O-])ccc3O)c2C(=O)c2c(NCCN=Cc3cc([N+](=O)[O-])ccc3O)cccc21,1.86 µM,20.1
O=c1ccn(C2CC(O)C(CO)O2)c(=O)[nH]1 (configuration not stated),> 5000 µM,> 5000
O=C(Nc1ccncc1)C(=O)c1cn(Cc2ccc(Cl)cc2)c2ccccc12,0.0271 µM,0.346
COc1ccc(-c2nc(-c3ccccc3)c(-c3ccccc3)[nH]2)cc1OC1CCCC1,> 100 µM,> 100
C[C@]12CCc3sc(NCCc4ccccc4)nc3C1=CC[C@@H]1[C@@H]2CC[C@]2(C)C(=O)CC[C@@H]12,2.99 µM,10.3
Cc1cc(C(=C2C=CC(=Nc3ccccc3)C=C2)c2ccc(Nc3ccccc3)cc2)ccc1N,0.332 µM,1.29
CCC(C)[C@H]1O[C@]2(C=C[C@@H]1C)C[C@@H]1C[C@@H](C/C=C(\C)[C@@H](OC3C[C@H](OC)C(O[C@H]4C[C@H](OC)[C@@H](O)[C@H](C)O4)[C@H](C)O3)[C@@H](C)/C=C/C=C3\CO[C@@H]4[C@H](O)C(C)=C[C@@H](C(=O)O1)[C@]34O)O2 (some centres not stated),1.03 µM,4.14
CCCNC(=O)CCC(C)C1CCC2C3C(C[C@H](OC(C)=O)[C@]12C)[C@@]1(C)CCC2(C[C@H]1C[C@H]3OC(C)=O)OOC1(CC[C@]3(C)C4C[C@H](OC(C)=O)[C@]5(C)C(C(C)CCC(=O)NCCC)CCC5C4[C@H](OC(C)=O)C[C@@H]3C1)OO2 (some centres not stated),24.9 µM,> 100
O=C1C(N2CC2)=C(N2CC2)C(=O)C(N2CC2)=C1N1CC1,0.395 µM,2.44
COc1cccc(-c2nn(-c3ccccc3)cc2-c2ccnc(NCCCNC(=O)Nc3ccc(Cl)c(Cl)c3)c2)c1,1.92 µM,4.34
CN[C@H](C#Cc1c(F)ccc2c1/C(=C/c1[nH]ccc1OC)C(=O)N2)CO,0.476 µM,1.45
CC(=O)C(=Cc1ccc(C=C(C(C)=O)C(C)=O)cc1)C(C)=O,1.51 µM,3.14
COc1cccc2c1ccc1nc3cccc(C(=O)N[C@H](C)CN(C)C)c3nc12,0.12 µM,0.485
CC(=O)OC[C@]12CC[C@@H](C(=O)CBr)[C@@H]1[C@H]1CC[C@@H]3[C@@]4(C)CCCNC(C)(C)[C@@H]4CC[C@@]3(C)[C@]1(C)CC2,2.12 µM,5.66
CNCCCn1c2c(c3ccc([N+](=O)[O-])cc3c1=O)C(=O)c1cc(OC)cnc1-2,0.0335 µM,0.189
O=C(Nc1cccc(-n2cc(-c3ccncc3)c(-c3cc(O)cc(Cl)c3)n2)c1)Nc1ccc(Cl)c(C(F)(F)F)c1,2.08 µM,8.42
CCOC(=O)c1cc2c(n1Cc1cccc(OC)c1)-c1oncc1CCC2,0.732 µM,> 82.8
O=C1NC(=C(Cl)Cl)/C(=N/S(=O)(=O)N2CCCCC2CC2(C(F)(F)F)N=N2)N1 (configuration not stated),1.16 µM,3.91
COc1cc2c(cc1O)CC[C@@H]1[C@@H]2CC[C@]2(C)[C@@H](OCCN(C)C)CC[C@@H]12,0.154 µM,0.531
c1csc(-c2cn3nc(-c4c[nH]c5ccccc45)sc3n2)c1,2.92 µM,27.8
CCCCC[C@H]1C/C=C2/C(=O)C=C[C@@H]2C/C=C\CCCC(=O)O[C@@H](CCCCC)C/C=C2/C(=O)C=C[C@@H]2C/C=C\CCCC(=O)O1,0.371 µM,1.01
Nc1nc(N)c2nc(CNc3ccc(C(=O)NC(CC(=O)O)C(=O)O)cc3)cnc2n1 (configuration not stated),1.37 µM,> 100
NC(=O)c1ccccc1Nc1ccc2nnc(-c3ccncc3)n2n1,1.98 µM,7.32
